Measured values from US20030203963A1, “Antimicrobial agent” (priority 2001, published 2003).

What was measured:
[1] = tested on: L. monocytogenes 272; assay: Test in cooked minced chicken slurry; format: cell-based, Listeria monocytogenes
Method: 1 kg of minced chicken (mainly lean meat) was purchased from the local butcher. This was mixed with 1 litre of BHI, mixed and dispensed as 100 g samples prior to autoclaving. When still warm, the meat was re-mixed thoroughly. When cooked, the meat was inoculated with 1 ml of 10^5 spores or cells (from an overnight broth), and re-mixed. The samples were then divided into 3×25 g portions, to which 0.5 ml of filter-sterilised APP20010215 was added (as 5% or 10% stock solutions) or water. An initial viable count was taken, and the samples then incubated at 8° C. and tested twice weekly. The pH of the chicken slurry was 6.42.

[2] = tested on: L. monocytogenes S23; assay: In vitro cidal experiment; format: cell-based, Listeria monocytogenes; settings: ambient temperature
Method: 100 μl of SDW (sterile deionised water) or APP sample E002012 was added to 890 μl 10 mM HEPES buffer (pH 7). […] After this time the bacteria were enumerated by viable count. The concentration of the APP sample was 24.7 μg/ml.

[3] = tested on: Ent. aerogenes 10102; assay: Bioscreen growth inhibition test; format: cell-based, Enterobacter aerogenes; settings: BS010510, 24 h/30, APP20010213
Method: For broth cultures and Bioscreen testing most bacteria were grown in Brain Heart Infusion (BHI, Oxoid, pH 7.4). Lactobacillus sake A10 was grown in de Man, Rogosa, Sharpe medium ([…], Oxoid). Yeasts were grown in Sabouraud Liquid medium (SLM, Oxoid). Most bacteria were cultured at 30° C. Lactic acid bacteria were grown on solid medium in enriched CO2 atmosphere. Clostridium species were grown in Reinforced Clostridial Medium (RCM) at 37° C. anaerobically. Brochothrix thermosphacta fungi and yeasts were grown at 25° C. Fungi were cultured on Malt Extract Agar (MEA, Oxoid).
An automated Microbiology Reader Bioscreen C was used to measure growth curves of the strains in the presence and absence of APP. The Bioscreen C measures the development of turbidity (i.e. growth) kinetically by vertical photometry in 200 wells of a honeycomb microtitre plate, simultaneously. The system consists of a Bioscreen C analyser, which is an incubator and measurement unit, integrated with a PC, software (BioLink v 5.30), printer and a ‘Honeycomb 2’ cuvette multiwell plate. Growth curve data can be analysed within the BioLink software or exported to programs such as Excel.
Broth culture media were dispensed in 270 μl volumes into the wells as directed. […] (depending on the micro-organism under investigation) with readings taken every 20 minutes after the trays were shaken. […]

[4] = tested on: Salmonella Typhimurium S29; assay: Chicken soup trial at 20° C.; format: cell-based; settings: chicken soup at 20° C., TCSM010430, APP20010213
Description: (§1) A local supermarket brand of cream of chicken soup was used as a model food system. 600 g packs were purchased from the local supermarket. This was a ‘fresh home-made type’ of soup that was stored in the chill cabinet, with a short shelf life. It was chosen because it is a rich, nutritious food system containing a range of food components including meat, dairy and vegetable.
(§2) Ingredients were labelled as: chicken stock (water, duck fat, chicken, salt, flavourings, yeast extracts, pork gelatine, glucose syrup, vegetable concentrate, milk protein, sugar, malto-dextrin, vegetable oil, citric acid, lactose, chicken fat), ilk, chicken (9%), cream (8%), onion, potato, vegetable oil, modified maize starch, wheat flour, lemon juice, salt, white pepper. pH 5.912. Protein: 3.3%; carbohydrate: 4.7%; fat: 7.2%; fibre: 0.2%; sodium: 0.1%
(§3) For the test the soup was mixed 2:1 in water (to facilitate sampling and mixing) and sterilised by autoclaving at 121° C. for 15 minutes. For each experiment the pH of the soup was recorded; this was between pH 5.79-5.88.
For TCS010430/20 (incubated at 20° C.) samples were prepared in 18.8 g quantities, to which 1 g of a suitable filter-sterilised APP stock solution was added and an appropriately diluted 0.2 ml inoculum. Great care was again taken to ensure homogeneous distribution of the APP and micro-organisms. This test was sampled by viable count test on a daily basis.

[5] = tested on: L. monocytogenes 272; assay: Chicken soup trial at 20° C.; format: cell-based, Listeria monocytogenes; settings: chicken soup at 20° C., TCSM010430, APP20010213
Description: as §1, §2, §3
For TCS010430/20 (incubated at 20° C.) samples were prepared in 18.8 g quantities, to which 1 g of a suitable filter-sterilised APP stock solution was added and an appropriately diluted 0.2 ml inoculum. Great care was again taken to ensure homogeneous distribution of the APP and micro-organisms. […]

[6] = tested on: L monocytogenes S23; assay: Chicken soup trial at 8° C.; format: cell-based, Listeria monocytogenes; settings: chicken soup at 8° C., TCSM010521, APP215
Description: as §1, §2, §3
For TCS010521/8 (incubated at 8° C.), samples were prepared in 27.8 g quantities. 1.5 g of an APP stock solution was added, and the tests inoculated with 0.3 ml of a suitably diluted cell or spore suspension to give a final inoculum of ca. 10^3 cfu/g. APP was tested at 0, 500 and 1000 ppm, and batch number APP20010213 (at 169 mg/ml) was used. The tests were sampled by viable count and then incubated at 8° C. and tested on a twice-weekly basis.

[7] = tested on: Listeria innocua; assay: Preliminary growth inhibition test; format: cell-based; settings: 37° C., 20 hours
Description: (§4) Antimicrobial activity was investigated using Salmonella Typhimurium and Listeria innocua.

[8] = tested on: Salmonella Typhimurium DSMZ 554; assay: Preliminary growth inhibition test; format: cell-based; settings: 37° C., 24 hour
Description: as §4

O=C1CC(CO)OC=C1O (centres unmarked) [APP, Ascopyrone P]
Effect on growth ([1]; 2000 ppm, minced chicken slurry at 8° C., pH 6.42, TCC010704): Slight inhibition by 2000 ppm only | No inhibition (effect on growth of target organism by 2000 ppm APP) ([1]; Cooked minced chicken slurry at 8° C. pH 6.42, organism printed in brackets): (L. monocytogenes) | Viable count after 2 h incubation ([2]; 24.7 μg/ml APP E002012, 10 mM HEPES buffer (pH 7)): 1.3 × 10^7 | Listeria counts after 2 h incubation ([2]; 24.7 μg/ml APP, buffer): remained steady | APP level causing total inhibition [3]: 4000 ppm | Effect on growth ([4]; 1000 ppm): No effect with 1000 ppm | Final count ([4]; 2000 ppm (cf 10^9 without)): 10^6 | Counts drop after ([4]; 2000 ppm): 8 days | Counts undetectable by ([4]; 2000 ppm): counts drop, undetectable by 18 d. | Effect on growth ([5]; 1000 ppm): No significant effect by 1000 ppm | Effect on growth ([5]; 2000 ppm): No total inhibition but reduction of growth rate only by 2000 | Effect on growth rate ([6]; 500 ppm): Slight reduction of growth rate with 500 and 1000 ppm | Effect on growth ([6]; 1000 ppm): No total inhibition by 1000 ppm | Effect on growth rate ([6]; 1000 ppm): Slight reduction of growth rate with 500 and 1000 ppm | Inhibition of bacterial growth ([7]; 500 μg/ml APP, 10e3 cfu/ml): slight inhibition | Inhibition of bacterial growth ([7]; 500 μg/ml APP, 10e5 cfu/ml): almost no inhibition | Inhibition of bacterial growth ([7]; 1000 μg/ml APP, 10e3 cfu/ml): intermediate inhibition | Inhibition of bacterial growth ([7]; 1000 μg/ml APP, 10e5 cfu/ml): slight inhibition | Inhibition of bacterial growth ([7]; 2000 μg/ml APP, 10e3 cfu/ml): almost complete inhibition | Inhibition of bacterial growth ([7]; 2000 μg/ml APP, 10e5 cfu/ml): intermediate inhibition | Inhibitory effect ([7]; 10e3 or 10e5 cfu/ml): satisfactory inhibitory effect | Inhibition of bacterial growth ([8]; 500 μg/ml APP): Intermediate inhibition | Inhibition of bacterial growth ([8]; 1000 μg/ml APP): strong inhibition | Inhibition of bacterial growth ([8]; 2000 μg/ml APP, 10e3 and 10e5 cfu/ml): complete inhibition | Inhibition of bacterial growth ([8]; 4000 μg/ml APP, 10e3 and 10e5 cfu/ml): complete inhibition | Inhibitory effect ([8]; 10e3 or 10e5 cfu/ml): satisfactory inhibitory effect
